Test results taken from patent publication US4748254A, “Mixed carboxylato platinum (II) complexes” (priority 1984, dated 1988).

Key:
hepatoma 22a = test: Increase of lifespan of mice with grafted hepatoma 22a; assay type: in vivo
Protocol: (§1) As the criteria for the antitumor activity for leukosises and ascytic forms of tumors the increase of the lifespan of treated animals (ILS, %)
(§2) T--average lifespan of treated animals;
(§3) C--average lifespan of control animals;
(§4) The experiments were carried out on line mice and their hybrides of the first generation. […]

[1] = Storage stability and hygroscopicity; assay type: physicochemical; conditions: in words
hemocytoblastosis La = test: Increase of lifespan of mice with hemocytoblastosis La; assay type: in vivo
Protocol: as §1, §2, §3, §4

plasmacytoma MOPC-406 = test: Increase of lifespan of mice with plasmacytoma MOPC-406; assay type: in vivo; conditions: for curing of animals with plasmocytoma MOPC-406: in words
Protocol: as §1, §2, §3, §4

[2] = tested on: mammal adenocarcinoma Ca 755; test: Tumor growth inhibition of mammal adenocarcinoma Ca 755; assay type: in vivo, mice
Protocol: and for a solid tumor--tumor growth inhibition (TGI, %)
O--volume of tumors in the group of treated animals;
K--volume of tumors in the control group were employed.
as §4

lymphoid leukosis L-1210 [3] = test: Increase of lifespan of mice with lymphoid leukosis L-1210; assay type: in vivo
Protocol: as §1, §2, §3
The experiments were carried out on line mice and their hybrides of the first generation. […] The compounds were administered to animals intraperitoneally in a 5% solution of glucose once or daily over 5 days within the time limits adopted in experimental studies of corresponding tumors.

[4] = cited from earlier work
[5] = cited from earlier work; remark: listed apart in the source
[6] = tested on: plasmacytoma of mice ADJ/PC6A; conditions: cited from earlier work
[7] = tested on: graft strains of tumors and leukoses of mice; test: Antitumor activity, overall statement; assay type: in vivo; conditions: in words
Protocol: The antitumor activity of the compounds according to the present invention has been studied on a number of strains of grafted solid tumors and leukosises of mice: plasmacytoma MOPC-406, lymphoid leukosis L-1210, hemocytoblastosis La, hepatoma 22a, mammal adenocarcinoma Ca 755.
The experiments were carried out on line mice and their hybrides of the first generation. […] The compounds were administered to animals intraperitoneally in a 5% solution of glucose once or daily over 5 days within the time limits adopted in experimental studies of corresponding tumors. […]

tumors = conditions: in words; cited from earlier work
lymphoid leukosis L-1210 [8] = test: Increase of lifespan of mice with lymphoid leukosis L-1210; assay type: in vivo; conditions: 3 mg/kg i.p. in 0.9% NaCl, days of treatment 1-5
[9] = 15-25 mg/kg i.p., days of treatment 2-6
[10] = 20-40 mg/kg i.p., days of treatment 2-6
[11] = 20-25 mg/kg i.p., days of treatment 2-6
[12] = 20 mg/kg i.p., days of treatment 7-11
[13] = 5 mg/kg i.p. in 0.9% NaCl, day 3
[14] = 2 mg/kg i.p. in 0.9% NaCl, days of treatment 2-5
[15] = 30 mg/kg i.p., days of treatment 2-6

## [NH2][Pt]1([NH]C2CCCC2)[O]C(=O)CC(=O)[O]1 [Example 6, malonatoammine(cyclopentylamine)platinum(II)]
Hepatoma 22a; [9]
  Increase of lifespan, %, Hepatoma 22a: 140%
  number of cured animals / animals employed, Hepatoma 22a: 2/6
Hepatoma 22a; in words
  curing of animals with hepatoma 22a: cure a portion of animals
[1]
  hygroscopicity: very hygroscopic
Hemocytoblastosis La; [9]
  Increase of lifespan, %, La: 21%
Plasmacytoma MOPC-406; 50 mg/kg i.p., day 7
  Increase of lifespan, %, MOPC-406: 329%
  number of cured animals / animals employed, MOPC-406: 3/6
Plasmacytoma MOPC-406; [9]
  Increase of lifespan, %, MOPC-406: 286%
  number of cured animals / animals employed, MOPC-406: 3/6
Plasmacytoma MOPC-406; 40-60 mg/kg i.p., day 2
  Increase of lifespan, %, MOPC-406: 300%
  number of cured animals / animals employed, MOPC-406: 5/6
Plasmacytoma MOPC-406
  curing of animals with plasmocytoma MOPC-406: ensure curing of a certain number of animals (up to 100%)
[2]; [9]
  Tumor growth inhibition, %, Ca-755: 76%
Lymphoid leukosis L-1210 [3]; [9]
  Increase of lifespan, %, L-1210: 36%
Lymphoid leukosis L-1210 [3]; 40-60 mg/kg i.p., day 2
  Increase of lifespan, %, L-1210: 45%

## [Cl][Pt-2]([Cl])([NH2+]C1CCCC1)[NH2+]C1CCCC1 [cis-[PtCl2 (cyclo-C5 H9 NH2)2]]
[4]; fine suspensions in sesame oil or aqueous solloids stabilized by polyvinylpyrrolidone
  therapeutic response or side effect: no therapeutic response or a side effect
[4]; in vivo
  local irritation: local irritation upon administration of an oily suspension
  retention at the spot of the injection: substantially remains at the spot of the injection
[5]; prior art compound, in words
  solubility in water: substantially insoluble in water
[6]; plasmacytoma ADJ/PC6A, mice
  ID90 (dose inhibiting growth of tumors by 90%): 2.4 mg/kg
  therapeutical index TI=LD50/ID90: 200

## N.NCC1CCCO1.O.O=C1C[C@H](O)C(=O)[O][Pt][O]1 [Example 21, S(-)-malatoammine(tetrahydrofurfurylamine)platinum(II)]
Hepatoma 22a; [10]
  Increase of lifespan, %, Hepatoma 22a: 340%
  number of cured animals / animals employed, Hepatoma 22a: 2/6
Hepatoma 22a; in words
  curing of animals with hepatoma 22a: cure a portion of animals
Plasmacytoma MOPC-406; [10]
  Increase of lifespan, %, MOPC-406: 280%
  number of cured animals / animals employed, MOPC-406: 3/6
Plasmacytoma MOPC-406
  curing of animals with plasmocytoma MOPC-406: ensure curing of a certain number of animals (up to 100%)
[2]; [10]
  Tumor growth inhibition, %, Ca-755: 95%
Lymphoid leukosis L-1210 [3]; [10]
  Increase of lifespan, %, L-1210: 120%

## RS-malatoammine(cyclopentylamine)platinum(II) [Example 5]
Hepatoma 22a; [11]
  Increase of lifespan, %, Hepatoma 22a: 322%
  number of cured animals / animals employed, Hepatoma 22a: 2/6
Hepatoma 22a; in words
  curing of animals with hepatoma 22a: cure a portion of animals
Plasmacytoma MOPC-406; [11]
  Increase of lifespan, %, MOPC-406: 350%
  number of cured animals / animals employed, MOPC-406: 4/6
Plasmacytoma MOPC-406
  curing of animals with plasmocytoma MOPC-406: ensure curing of a certain number of animals (up to 100%)
[2]; [11]
  Tumor growth inhibition, %, Ca-755: 95%
Lymphoid leukosis L-1210 [3]; [11]
  Increase of lifespan, %, L-1210: 156%

## N.NC1CC1.O=C([O-])CC(=O)[O-].[Pt+2] [Example 1, malonatoammine(cyclopropylamine)platinum(II)]
Hepatoma 22a; [9]
  Increase of lifespan, %, Hepatoma 22a: 85%
  number of cured animals / animals employed, Hepatoma 22a: 0/6
Hemocytoblastosis La; [9]
  Increase of lifespan, %, La: 29%
Plasmacytoma MOPC-406; 60 mg/kg i.p., day 7
  Increase of lifespan, %, MOPC-406: 150%
  number of cured animals / animals employed, MOPC-406: 1/6
Plasmacytoma MOPC-406; [9]
  Increase of lifespan, %, MOPC-406: 268%
  number of cured animals / animals employed, MOPC-406: 2/6
Plasmacytoma MOPC-406; 60-70 mg/kg i.p., day 2
  Increase of lifespan, %, MOPC-406: 177%
  number of cured animals / animals employed, MOPC-406: 1/6
Plasmacytoma MOPC-406
  curing of animals with plasmocytoma MOPC-406: ensure curing of a certain number of animals (up to 100%)
[2]; [9]
  Tumor growth inhibition, %, Ca-755: 89%
Lymphoid leukosis L-1210 [3]; [9]
  Increase of lifespan, %, L-1210: 39%
Lymphoid leukosis L-1210 [3]; 60-70 mg/kg i.p., day 2
  Increase of lifespan, %, L-1210: 48%

## N.NC1CCC1.O=C1[O][Pt][O]C(=O)C1O [Example 3, (hydroxymalonato)ammine(cyclobutylamine)platinum(II)]
[2]; 20 mg/kg i.p., days of treatment 2-6
  Tumor growth inhibition, %, Ca-755: 70%
Lymphoid leukosis L-1210 [3]; 25 mg/kg i.p., days of treatment 2-6
  Increase of lifespan, %, L-1210: 100%
Lymphoid leukosis L-1210 [3]; 60 mg/kg i.p., day 2
  Increase of lifespan, %, L-1210: 71%

## S(-)malatoammine(cyclopentylamine)platinum(II) [Example 4]
Hepatoma 22a; [9]
  Increase of lifespan, %, Hepatoma 22a: 225%
  number of cured animals / animals employed, Hepatoma 22a: 4/6
Hepatoma 22a; in words
  curing of animals with hepatoma 22a: cure a portion of animals
Hepatoma 22a; optimal doses
  curing of animals with hepatoma 22a: up to 66%
[1]
  hygroscopicity: hydroscopic
Hemocytoblastosis La; [9]
  Increase of lifespan, %, La: 113%
Hemocytoblastosis La; in words
  lifespan of animals with hemocytoblastosis La: considerably extends the lifespan
Hemocytoblastosis La; optimal doses
  extension of life span of animals with hemocytoblastosis La: 113%
[7]
  antitumor activity: highest antitumor activity among the compounds according to the present invention
Plasmacytoma MOPC-406; [12]
  Increase of lifespan, %, MOPC-406: 356%
  number of cured animals / animals employed, MOPC-406: 3/6
Plasmacytoma MOPC-406; [9]
  Increase of lifespan, %, MOPC-406: 327%
  number of cured animals / animals employed, MOPC-406: 6/6
Plasmacytoma MOPC-406; 60-80 mg/kg i.p., day 2
  Increase of lifespan, %, MOPC-406: 310%
  number of cured animals / animals employed, MOPC-406: 5/6
Plasmacytoma MOPC-406
  curing of animals with plasmocytoma MOPC-406: ensure curing of a certain number of animals (up to 100%)
Plasmacytoma MOPC-406; optimal doses
  curing of animals with plasmacytoma MOPC-406: up to 100%
[2]; [9]
  Tumor growth inhibition, %, Ca-755: 96%
Lymphoid leukosis L-1210 [3]; [9]
  Increase of lifespan, %, L-1210: 195%
Lymphoid leukosis L-1210 [3]; 60-80 mg/kg i.p., day 2
  Increase of lifespan, %, L-1210: 101%
Lymphoid leukosis L-1210 [3]; optimal doses
  extension of life span of animals with leukemia L-1210: 195%

## NC1CCCCC1.NC1CCCCC1.[Cl][Pt][Cl] [complex with cyclohexylamine]
[6]; plasmacytoma ADJ/PC6A, mice
  therapeutical index TI=LD50/ID90: above 267

## N.N.[Cl][Pt][Cl] [DDP, cis-dichlorodiammineplatinum(II), reference compound]
Hepatoma 22a; [13]
  Increase of lifespan, %, Hepatoma 22a: 120%
  number of cured animals / animals employed, Hepatoma 22a: 0/6
Hepatoma 22a; in words
  curing of animals with hepatoma 22a: no curing of animals
Hemocytoblastosis La; 8 mg/kg i.p. in 0.9% NaCl, day 1
  Increase of lifespan, %, La: 200%
tumors
  antitumor activity: high antitumor activity
  spectrum of action on diverse tumors: remarkably wide spectrum of action on diverse tumors
Lymphoid leukosis L-1210 [8]
  Increase of lifespan, %, L-1210: 116%
Plasmacytoma MOPC-406; [14]
  Increase of lifespan, %, MOPC-406: 140%
  number of cured animals / animals employed, MOPC-406: 0/6
Plasmacytoma MOPC-406
  curing of animals with plasmocytoma MOPC-406: no curing of animals
[2]; 8 mg/kg i.p. in 0.9% NaCl, day 2
  Tumor growth inhibition, %, Ca-755: 95%
[6]; plasmacytoma ADJ/PC6A, mice
  ID90 (dose inhibiting growth of tumors by 90%): 1.6 mg/kg

## [NH2][Pt]1([NH]C2CCCCC2)[O]C(=O)CCC(=O)[O]1 [Example 15, succinatoammine(cyclohexylamine)platinum(II)]
[2]; [15]
  Tumor growth inhibition, %, Ca-755: 72%
Lymphoid leukosis L-1210 [3]; [15]
  Increase of lifespan, %, L-1210: 108%
Lymphoid leukosis L-1210 [3]; 150 mg/kg i.p., day 2
  Increase of lifespan, %, L-1210: 120%

## N.NC1CCCC1.[Cl][Pt][Cl] [cis-[PtCl2 NH3 (cyclo-C5 H9 NH2)]]
tumors
  advantage over parent compounds with identical ligands: absence of advantages of this mixed complex as compared to the parent compounds with identical ligands
[5]; 0.9% NaCl
  solubility in 0.9% NaCl: about 1 mg/ml
[6]; in words, versus DDP
  toxicity compared with DDP: slightly more toxic than DDP
[6]; mice, plasmacytoma ADJ/PC6A tests
  LD50: 11.0 mg/kg
[6]; plasmacytoma ADJ/PC6A, mice
  ID90 (dose inhibiting growth of tumors by 90%): 0.5 mg/kg
[6]; plasmacytoma ADJ/PC6A, versus DDP
  90% tumor growth inhibiting dose, times less than that of DDP: 3 times
[6]; plasmacytoma ADJ/PC6A, versus cis-[PtCl2 (cyclo-C5 H9 NH2)2 ]
  90% tumor growth inhibiting dose, times less than that of cis-[PtCl2 (cyclo-C5 H9 NH2)2 ]: ~5 times
